From patent US5126258A (priority 1988, dated 1992)

Columns and labels:
[1] = Spontaneous (uncatalyzed, background) hydrolysis; type: physicochemical; settings: for Spon. (spontaneous hydrolysis): pH 8.0, 50 mM phosphate, time (h): 17 2, 18 24, 20 0.33, 5 0.33, 22 3.5
In short: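 Background (uncatalyzed) hydrolysis of ester substrates measured in 50 mM phosphate buffer, pH 8.0, without antibody, as percentage of reactant consumed over the stated period. Quantified by C18 HPLC (acetonitrile/water with 0.1% trichloroacetic acid); Compounds 5 and 20 followed by fluorescence (ex 355 nm, em 455 nm).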

21G2 = experiment: Hydrolysis of reactant ligands by receptor 21G2; type: biochemical, mouse; settings: for hydrolysis by 21G2: pH 8.0, receptor/ligand uM, time h: 17 1/10, 2, 18 2/10, 24, 20 2/10, 0.33, 5 1/5, 0.33, 22 5/10, 3.5, preliminary
Method: (§1) ^1 Preliminary initial hydrolyses shown as the percentage of admixed
(§2) reactant ligand consumed for catalyzed and spontaneous hydrolyses. "--" =
(§3) No hydrolysis observed. "NT" = Not tried. All reactions were carried out
(§4) at pH 8.0 in a 50 mM phosphate buffer unless otherwise noted. Hydrolytic
(§5) percentages were determined by HPLC using a Hitachi model 655A12 liquid
(§6) chromatograph with a C18 Vydac 201TP54 column, except as noted below.
(§7) Mixtures of acetonitrile a nd water containing 0.1 percent trichloroaceti
(§8) acid [28:72-50:50 (v/v)] were used as elutant. Hydrolyses of Compounds 5
(§9) and 20 were assayed using fluorescence data.
(§10) ^2 Concentrations of receptor molecules (Rec.) and reactant ligands
(§11) (Lig.) in micromolar units, presuming a molecular weight of 150,000
(§12) daltons for each receptor molecule.
(§13) ^3 Reactant ligand (Lig.) used as substrate.
(§14) ^4 Time in hours that the reaction was permitted to take place.
(§15) ^5 Spontaneous hydrolytic percentages for the time period indicated.
(§16) ^6 Reaction carried out at pH 7.2 in a 50 mM phosphate buffer.

7E5 = experiment: Hydrolysis of reactant ligands by receptor 7E5; type: biochemical, mouse; settings: for hydrolysis by 7E5: pH 8.0, receptor/ligand uM, time h: 17 1/10, 2, 18 2/10, 24, 20 2/10, 0.33, 5 1/5, 0.33, 22 5/10, 3.5, preliminary
Method: as §1, §2, §3, §4, §5, §6, §7, §8, §9, §10, §11, §12, §13, §14, §15, §16

37G2 = experiment: Hydrolysis of reactant ligands by receptor 37G2; type: biochemical, mouse; settings: for hydrolysis by 37G2: pH 8.0, receptor/ligand uM, time h: 17 1/10, 2, 18 2/10, 24, 20 2/10, 0.33, 5 1/5, 0.33, 22 5/10, 3.5, preliminary
Method: as §1, §2, §3, §4, §5, §6, §7, §8, §9, §10, §11, §12, §13, §14, §15, §16

1209 = experiment: Hydrolysis of reactant ligands by receptor 12C9 (column head prints 1209); type: biochemical, mouse; settings: for hydrolysis by 1209: pH 8.0, receptor/ligand uM, time h: 17 1/10, 2, 18 2/10, 24, 20 2/10, 0.33, 5 1/5, 0.33, 22 5/10, 3.5, preliminary
Method: as §1, §2, §3, §4, §5, §6, §7, §8, §9, §10, §11, §12, §13, §14, §15, §16

44A2 = experiment: Hydrolysis of reactant ligands by receptor 44A2; type: biochemical, mouse; settings: for hydrolysis by 44A2: pH 8.0, receptor/ligand uM, time h: 17 1/10, 2, 18 2/10, 24, 20 2/10, 0.33, 5 1/5, 0.33, 22 5/10, 3.5, preliminary
Method: as §1, §2, §3, §4, §5, §6, §7, §8, §9, §10, §11, §12, §13, §14, §15, §16

22F5 = experiment: Hydrolysis of reactant ligands by receptor 22F5; type: biochemical, mouse; settings: for hydrolysis by 22F5: pH 8.0, receptor/ligand uM, time h: 17 1/10, 2, 18 2/10, 24, 20 2/10, 0.33, 5 1/5, 0.33, 22 5/10, 3.5, preliminary
Method: as §1, §2, §3, §4, §5, §6, §7, §8, §9, §10, §11, §12, §13, §14, §15, §16

[2] = tested on: eight monoclonal receptors 21G2, 7E5, 37G2, 13E10, 12C9, 44A2, 17G8 and 22F5; experiment: Catalyzed hydrolysis of reactant ligands by the eight QPN1 monoclonal receptors, summary; type: biochemical, mouse; settings: pH 8.0
Method: Mice were hyperimmunized with the Compound 13-KLH conjugate over a three to four week time period. Sera were assayed in an ELISA using a Compound 13-BSA conjugate bound to microtiter plate wells as the solid-phase antigen. Cloned hybridomas were also screened using that ELISA assay.
Each of those catalyses could be inhibited by an appropriate analog-ligand. Thus, a relatively high percentage of induced monoclonal receptors was capable of catalyzing an esterolytic reaction. The reason for this relatively high percentage of useful receptors being induced is unknown, but could be due to the presence of phosphonamidate group nitrogen atom, as compared to a phosphonate oxygen atom, or to the quinoline nucleus of the analog-ligand. Those eight catalytic monoclonal receptors and the hybridomas that secrete them are identified by the laboratory designations "QPN1 7E5", "QPN1 12C9", "QPN1 13E10", "QPN1 17G8", "QPN1 21G2", "QPN1 22F5", "QPN1 37G2" and QPN1 44A2. The prefix "QPNI" is sometimes omitted herein when discussing these hybridomas and receptors.
Amide cleavage for Compounds 14 and 15 was assayed by analyzing for the production of free aminoquinaldine or aminonaphthalene by measuring the increase in the azo dye that results from derivatizing the free aminoquinaldine or aminonapthalene with a diazotization reagent.
Catalysis reactions were conducted by preparing a reaction admixture of 100 microliters (ul) total volume containing 5 micromolar (uM) monoclonal antibody, 50-75 uM amide reactant ligand substrate and a buffer described hereinafter. The buffer included in the above admixture varied depending upon the pH utilized as follows: pH 5, 10 […] sodium acetate, 10 mM sodium chloride; pH 7.2, 10 mM sodium phosphate, 0.15 molar (M) sodium chloride; pH 8.0; 50 mM sodium phosphate. The amide-containing substrates screened in this assay were added to the above admixture in 1 ul of a 100-fold concentrated stock solution of dimethyl formamide (DMF). Monoclonal antibody was added to the above admixture from a concentrated stock solution. The resulting admixture was placed into the well of a 96 well flat bottom microtiter plate (Costar, Cambridge, Mass.) and maintained in a moist vapor environment chamber at 23 degrees C. The production of aminoquinaldine or aminonaphthalene was then assayed as described below after 2,3,5, or 6 days.
The aminoquinaldine or aminonapthalene product produced by the catalyzed reaction was measured by first admixing 20 ul of 5M HCl, 80 ul acetone and 10 ul 0.5% (w/v) sodium nitrite to the reaction admixture to form a second admixture and maintaining that second admixture for 3 minutes at room temperature. Thereafter, 10 ul 2.5% (w/v) ammonium sulfamate was added to form a third admixture that was maintained for 2 minutes at room temperature. A still further 10 ul of 0.5% (w/v) N-(1-napthyl)ethylenediamine dihydrochloride was added to form a fourth admixture that was then maintained for 15 minutes at room temperature. Thereafter the resulting azo dye present in the fourth admixture was measured by absorbance spectroscopy at 540 nanometers (nm) for aminoquinaldine using a Model EL 309 Automated Microplate Reader (Bio-Tek Instruments, Winooski, Vt.).

[3] = pH 7.2, 1 uM receptor, 10 uM ligand, 2 h

Spon. (spontaneous hydrolysis), pH 7.2 ([1]; pH 7.2, 50 mM phosphate, 2 h)	Spon. (spontaneous hydrolysis) [1]	hydrolysis by 21G2, pH 7.2 (21G2; [3])	hydrolysis by 21G2 (21G2)	hydrolysis by 7E5, pH 7.2 (7E5; [3])	hydrolysis by 7E5 (7E5)	hydrolysis by 37G2, pH 7.2 (37G2; [3])	hydrolysis by 37G2 (37G2)	hydrolysis by 1209, pH 7.2 1209; [3]	hydrolysis by 1209 1209	hydrolysis by 44A2, pH 7.2 (44A2; [3])	hydrolysis by 44A2 (44A2)	hydrolysis by 22F5, pH 7.2 (22F5; [3])	hydrolysis by 22F5 (22F5)	spontaneous rate of hydrolysis ([1]; above pH 8.0)	SMILES	receptors (of eight) that catalyzed hydrolysis of the compound [2]
4 percentage of reactant ligand	7 percentage of reactant ligand	10 percentage of reactant ligand	10 percentage of reactant ligand	35 percentage of reactant ligand	30 percentage of reactant ligand	39 percentage of reactant ligand	60 percentage of reactant ligand	35 percentage of reactant ligand	55 percentage of reactant ligand	19 percentage of reactant ligand	62 percentage of reactant ligand	16 percentage of reactant ligand	51 percentage of reactant ligand	–	CC(=O)Nc1ccc(CC(=O)Oc2cccc3ccccc23)cc1 [Compound 17]	all of the receptors catalyzed hydrolysis
–	5 percentage of reactant ligand	–	43 percentage of reactant ligand	–	8 percentage of reactant ligand	–	12 percentage of reactant ligand	–	11 percentage of reactant ligand	–	47 percentage of reactant ligand	–	48 percentage of reactant ligand	rapid	O=C(Cc1ccc(NC(=O)C(F)(F)F)cc1)Oc1ccc2ccc(=O)oc2c1 [Compound 5]	all of the receptors catalyzed hydrolysis
